Where a SMILES comes first, the peptide text is derived from it.

A word on the inhibition: it is the share of the control response that was lost under treatment.

For this experiment, the target named is T1, NEP (Rattus norvegicus, UniProt P07861).
T1 construct: incubations of membrane and fresh tissue slice preparations from nervous tissues; from tissue; host or cells: rat spinal cord (dorsal zone), fresh slices or 100 000 x g membrane fraction
T1 sequence (P07861 1-750): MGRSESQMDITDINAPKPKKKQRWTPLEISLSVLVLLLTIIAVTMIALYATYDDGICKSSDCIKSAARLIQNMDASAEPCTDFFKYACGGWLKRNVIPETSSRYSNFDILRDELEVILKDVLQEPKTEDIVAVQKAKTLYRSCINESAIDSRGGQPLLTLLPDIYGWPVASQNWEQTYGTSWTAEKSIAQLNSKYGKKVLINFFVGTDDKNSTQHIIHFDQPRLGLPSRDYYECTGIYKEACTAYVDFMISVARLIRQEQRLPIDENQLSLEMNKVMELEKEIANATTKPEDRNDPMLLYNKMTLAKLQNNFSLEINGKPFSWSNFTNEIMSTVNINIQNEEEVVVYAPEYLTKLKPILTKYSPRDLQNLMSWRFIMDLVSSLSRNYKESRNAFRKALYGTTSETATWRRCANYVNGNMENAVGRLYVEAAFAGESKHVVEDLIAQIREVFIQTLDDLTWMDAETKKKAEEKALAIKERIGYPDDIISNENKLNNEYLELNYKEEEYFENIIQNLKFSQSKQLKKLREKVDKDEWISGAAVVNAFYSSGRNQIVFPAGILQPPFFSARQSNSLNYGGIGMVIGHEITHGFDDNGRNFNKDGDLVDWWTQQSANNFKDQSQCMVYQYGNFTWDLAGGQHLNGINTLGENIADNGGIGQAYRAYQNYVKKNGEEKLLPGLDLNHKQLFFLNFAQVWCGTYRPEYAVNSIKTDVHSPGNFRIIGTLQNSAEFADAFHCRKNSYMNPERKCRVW
In words: Met-enkephalin hydrolysis by rat spinal cord slices and membrane preparations, RP-HPLC analysis. The format is biochemical. As to conditions: 10 μM; spinal cord slices; 20 min at 25° C.; Met-enkephalin 10 μM; read-out: inhibition of Met-enkephalin degradation (RP-HPLC). The procedure:
The organs are rapidly removed, dissected on ice, freed of nerve fibers and of adipose tissues and then washed in cold oxygenated glucose-and bicarbonate-containing Krebs Ringer (KRBG) solution, whose composition is the following: 120 mM NaCl-5 mM KCl-1.2 mM KH2PO4-27.5 mM NaHCO3-2.6 mM CaCl2-0.67 mM MgSO4-5.9 mM glucose. The slices of tissues are prepared either manually with the aid of a scalpel (1-2 mm thick), or mechanically with the aid of a “Tissue Chopper” (1 mm thick). Slices are then dispersed into reaction tubes where they are subjected to three successive washes in ice-cold oxygenated KRBG. […] The organs dissected out and washed in ice-cold KRBG are homogenized at 4° C. in 10 volumes (vol./wt.) of 50 mM Tris/HCl buffered at pH 7.2, using a Teflon-glass homogenizer (3×5 sec.). A first centrifugation of 5 min. at 1000×g and 4° C. makes it possible to remove the tissular debris and the nuclei in the pellet. A second centrifugation of the supernatant at 100 000×g and 5° C. concentrates the membrane fraction into the pellet, which will be superficially washed three times with cold Tris/HCl buffer and resuspended in fresh buffer using a Kontes homogenizer, aliquoted and stored at -80° C. while waiting to be used as enzyme source, at least until three months. For the experiments of analysis of the NEP peptidase activity, an ex vivo model using incubations of membrane and fresh tissue slice preparations from nervous tissues that are known to be appropriate for exploring NEP peptidase activity: i.e. the dorsal zone of rat spinal cord, was first developed. The metabolism rate of the NEP-sensitive peptides was measured using the both NEP substrates involved in the signaling of the nociceptive response: the neuropeptides Met-enkephalin and Substance P. […] (NEN, 12.5-25 nM) were used. The objective was to measure the NEP-specific endoproteolysis of these substrates. […] Furthermore, for studying the functional role of […] NO: 1), the reaction was carried out in the presence of the SMR1-peptide alone or combined with specific inhibitors of membrane peptidases which could inactivate the […] NO: 1) peptide by cleaving its C-terminal end: an inhibitor of carboxypeptidase […], 10 μM, Sigma) and an inhibitor of dipeptidylpeptidase IV (DPPIV inhibitor, 10 μM, Roche). […] Samples are kept at -30° C. until the measurement of their intact substrate and its metabolites content. The membrane preparations are preincubated in 50 mM Tris/HCl buffered at pH 7.2 and containing 10 μM Bestatin, at 25, 30 or 37° C. in constantly shaken water, in the presence or in the absence of NEP inhibitor. […] Samples are kept at -30° C. until the measurement of their intact substrate and its metabolites content. HPLC is a highly resolutive procedure that allows one to isolate, and detect by coupled spectrophotometer analysis, the non-radioactive peptides whose concentration is at least 1 to 10 μM. The C-18 RP-HPLC is based on the same principle as the C-18 Sep-Pak cartridge. The chromatographic analyses were used to study the hydrolysis of Met-Enkephalin, that were done on a C-18 LUNA analytical column (150×4.6 mm inner diameter, AIT) packed with 5 μm-diameter beads. […] Their identification and relative quantification (peak height) are checked by continuously monitoring the UV absorbance at 254 nm of column outflow. In first series of experiment, the slices and the membrane preparations of spinal cord tissues were incubated at 30° C. in a 1 ml final volume of KRBG, and at 37° C. in a 0.25 ml final volume of Tris/HCl 50 mM, pH 7.2, respectively.

In the case of `N=C(N)NCCC[C@H](NC(=O)[C@@H]1CCCN1C(=O)[C@H](CC(N)=O)NC(=O)[C@H](Cc1c[nH]cn1)NC(=O)[C@@H](N)CCC(N)=O)C(=O)O` [SMR1-QHNPR, QHNPR] (H-QHNPR-OH; N-terminus and C-terminus assumed), the inhibition at 10 µM came to 70%.

These data come from patent US7423020B2, “Treatment of mood disorders by administration of SMR1” (Institut Pasteur, priority 2001, dated 2008).
